Earlier results on 1 substance are cited in patent US20240139108A1, “ORAL PHARMACEUTICAL COMPOSITION OF ARSENIC TRIOXIDE” (INTAS PHARMACEUTICALS LTD., priority 2021, published 2024).

The conditions of data set [1]: orally administered versus same amount administered intravenously.

Take Diarsenic trioxide: the solubility in water result is given as “low solubility in water”. Further, in data set [1], the peak plasma concentration result is recorded as “lower peak plasma concentration”; the “prolongation of the QT interval and ventricular tachycardia” value was “less prolongation of the QT interval and ventricular tachycardia”.
